Tests used:
MMP-2 = biological target: T1, MMP-2 (Homo sapiens, UniProt P08253); assay: MMP-2 inhibition assay; type: biochemical; conditions: read-out: % inhibition MMP-2
T1 construct: purchased AnaSpec (Fremont, CA, USA)
T1 sequence (P08253 110-660): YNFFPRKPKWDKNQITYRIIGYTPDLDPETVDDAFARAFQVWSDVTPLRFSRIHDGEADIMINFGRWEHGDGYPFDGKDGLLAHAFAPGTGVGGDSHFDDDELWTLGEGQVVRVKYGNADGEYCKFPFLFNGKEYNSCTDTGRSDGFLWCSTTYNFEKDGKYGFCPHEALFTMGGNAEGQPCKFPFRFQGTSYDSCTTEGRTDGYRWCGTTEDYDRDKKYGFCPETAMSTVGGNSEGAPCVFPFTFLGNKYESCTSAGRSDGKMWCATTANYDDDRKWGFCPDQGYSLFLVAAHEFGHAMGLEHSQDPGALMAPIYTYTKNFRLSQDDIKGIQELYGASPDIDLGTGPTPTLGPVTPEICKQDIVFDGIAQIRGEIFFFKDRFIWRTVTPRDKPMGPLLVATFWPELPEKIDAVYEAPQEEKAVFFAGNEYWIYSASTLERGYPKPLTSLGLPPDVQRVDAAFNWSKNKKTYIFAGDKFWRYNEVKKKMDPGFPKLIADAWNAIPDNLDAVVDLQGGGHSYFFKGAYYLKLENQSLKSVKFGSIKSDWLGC

HEK293 = conditions: human, 48 h, 100 µM
[1] = test system: A549 cells treated with P. aeruginosa PAO1 and PA14 supernatants; assay: A549 cells challenged with P. aeruginosa culture supernatants
Description: Cells were maintained according to standard cell
PA14 csn production. The csn of wt PA14 and ΔlasB PA14 was produced as we previously
Validation of the effect of LasB inhibitors on A549 cells in vitro. The experiment was performed
as described previously.32 The Picrosirius red assay was performed by washing the csn-challenged
cells (± inhibitor) 3x with PBS followed by an incubation with Bouin solution (Sigma) at RT for
20 min. The cells were incubated with 0.1% Picrosirius red dye (ab150681) at RT for 2 h. Then,
they were washed once with 0.01 N HCl, and the matrix was dissolved in 0.01 N NaOH. The
absorption was measured at 570 nm using a PHERAstar plate reader (BMG Labtech). By dividing
the absorbance of each sample by the absorbance of the healthy sample, the relative collagen
quantity was determined. For each condition, the experiment was performed three times. To
determine the rescue of A549 cells treated with 5% wt PA14 csn using our compounds, the LasB
inhibitors were used at 2, 0.5, 0.1 and 0.05 µM. The compounds were incubated in F12K medium,
Cell detachment was then evaluated, and a Trypan Blue cell
cells/well were seeded into a flat bottom 96-well plate (Corning™ Costar™) and incubated at 37
were tested against 10% (v/v) P. aeruginosa PAO1 csn diluted in DMEM starting from 10 µM
and 20 µM, respectively. Compound was initially dissolved in DMSO, and a low final assay
concentration of 0.5% (v/v) was applied to minimize the proteolytic effect of DMSO on the
bacterial culture supernatant. In addition, cells were challenged with 10% (v/v) of ΔlasB PAO1 to

For CC(C)CC(C(=O)Nc1ccc(C(F)(F)F)cc1)P(=O)(O)O (stereo not shown) [Compound 4b], the inhibition at 100 µM (MMP-2) was 25 ± 4%, the “% growth inhibition HEK293” value (HEK293) was 11 ± 1% and the “reduction of cleavage of collagen” value ([1]; A549 cells, 15% (v/v) wt PA14 csn, 3.15 μM) was 20%. The “LasB-related cytotoxicity in csn-treated A549 cells” value ([1]; PAO1 or PA14 csn) was “dose-dependent reduction of LasB-related cytotoxicity”.

Source: paper PMC10755728, “Inhibitors of the Elastase LasB for the Treatment of Pseudomonas aeruginosa Lung Infections” (ACS Central Science, 2023)
